Data reported in US20220153780A1, “SALT FORMS OF S-(N, N-DIETHYLCARBAMOYL)GLUTATHIONE” (Tonix Pharma Holdings Limited, priority 2019, published 2022).
≈ marks a conversion by molar mass, not a printed value. Read-outs that look alike come from different tables or passages of the source.

Assays:
C57BL/6J mice = experiment: Voluntary ethanol intake in chronic intermittent ethanol (CIE) exposed and air-exposed (CTL) mice, limited access drinking; assay type: in vivo; conditions: for weekly average ethanol intake vs vehicle: nondependent (CTL) mice; for ethanol intake as percent change from vehicle group: Test cycles 5 and 7
Experimental: Following the established protocol, adult male C57BL/6J mice (N=96) were trained to drink ethanol in a limited access (2 hour/day) free-choice (15% v/v ethanol vs. water) drinking procedure. After four weeks, stable baseline level of intake was established, and mice were separated into two groups. One group of mice (CIE group) was exposed to chronic intermittent ethanol (CIE) vapor exposure in inhalation chambers (16 hour/days x 4 days). The remaining mice (CTL group) were treated similarly but exposed to air in inhalation chambers. After a 72 hour forced abstinence period, all mice resumed ethanol drinking in the same limited access paradigm for a 5-day test period. This pattern of weekly CIE (or air) exposure cycles with intervening weekly test drinking cycles was repeated for seven cycles following procedures previously published (Becker and Lopez, 2004; Griffin et al., 2009; Lopez and Becker, 2005).
All mice received intraperitoneal (IP) administration of saline 30 min prior to the start of daily drinking sessions during baseline and the early test cycles to acclimate the animals to the handling procedure. After the fourth ethanol intake test cycle, mice were further divided into carbamathione dose treatment conditions (N=10-12/group).
After Test 4, CIE and CTL mice were separated in dose groups for Test 5 (N=11-12/group), with the groups equated for intake during Test 4. Mice received intraperitoneal (IP) injections of carbamathione (100, 200 or 400 mg/kg) or vehicle (0.25% carboxymethyl cellulose, CMC in water) 30 min before drinking. The carbamathione IP injections were administered as a suspension. Ethanol intake during Test 5 was averaged for the week and analyzed by ANOVA, with Group (CTL, CIE) and carbamathione dose (0, 100, 200, 400 mg/kg) as between-subject factors. ANOVA indicated a significant main effect of Group [F(1,78)=53.33; p<0.0001], reflecting a higher level of ethanol intake in CIE mice compared to CTL mice (* in FIG. 4).
The efficacy of carbamathione in reducing ethanol intake in mice was next compared to the efficacy of disulfiram, an FDA approved drug used in the treatment of chronic alcoholism. The mice were exposed to a sixth cycle of CIE (or air) and evaluated for intake with the same procedure used in the previous test cycle, except that disulfiram was included as a comparator drug. Mice that received vehicle or 400 mg/kg carbamathione continued with this treatment schedule. Mice that received 100 or 200 mg/kg carbamathione were combined and randomly redistributed to receive 75 or 100 mg/kg disulfiram during the first two days and these doses were increased to 125 and 150 mg/kg disulfiram, respectively for the last three days of Test 6. Disulfiram doses were prepared with the same vehicle used for carbamathione (i.e., 0.25% CMC). Separate analyses were conducted to evaluate the effect of carbamathione and disulfiram treatment. Data presented in FIG. 5 show the weekly average intake for CIE and CTL mice that received vehicle or carbamathione. […] Data for mice that received vehicle, 75, or 100 mg/kg of disulfiram were averaged over the first two days of the week. […]
Mice were evaluated again for voluntary ethanol intake after a seventh and final CIE or air exposure cycle. During the five days of Test 7, mice that received vehicle injections from the start of the study continued to receive vehicle injections. Mice that received carbamathione and disulfiram in Test cycles 5 and 6 received vehicle injections in Test 7 to evaluate any long-lasting effect of previous treatment (drug washout evaluation). Finally, mice that received 400 mg/kg carbamathione continued treatment with a higher dose of carbamathione (600 mg/kg). Analysis of the groups that received vehicle injections during Test 7 was performed with Group (CIE, CTL) and previous treatment (vehicle, low, or high disulfiram dose) as main factors. This analysis indicated a significant main effect of Group [F(1,59)=25.36; p<0.0001]. […] (data not shown). […]

[1] = Solubility of free carbamathione in buffer by portion-wise addition of solid; assay type: physicochemical; conditions: thermodynamic from solid, read-out: Solubility TNX1001
Experimental: The solubility of free carbamathione was determined to be between 20 and 30 mg/mL, as 100 mg of free carbamathione dissolved completely in 5 mL of buffer, but a saturated solution was formed when a subsequent 50 mg aliquot of solid was added to the solution.
The solubility of free carbamathione was determined to be between 10 and 20 mg/mL, as 50 mg of free carbamathione dissolved completely in 5 mL of buffer, but a saturated solution was formed when a subsequent 50 mg aliquot of solid was added to the solution.

ALDH2 = conditions: Faiman et al., 2013; cited from earlier work

solubility ([1]; aqueous buffer, pH 4.5, 25° C.): 10 to 20 mg/mL (≈ 24.6 to 49.2 mM)
solubility ([1]; aqueous buffer, pH 6.8, 25° C.): 20 to 30 mg/mL (≈ 49.2 to 73.8 mM)
solubility ([1]; simulated gastric fluid, pH 1.2, 25° C.): 25 to 33 mg/mL (≈ 61.5 to 81.2 mM)
Structure (SMILES): CCN(CC)C(=O)SCC(NC(=O)CCC(N)C(=O)O)C(=O)NCC(=O)O (stereo not drawn) [carbamathione, S—(N,N-diethylcarbamoyl)glutathione]
reduction in ethanol intake, CTL mice compared to CIE-exposed mice (C57BL/6J mice; 200, 400 and 600 mg/kg, percent change from vehicle): significantly larger reduction in ethanol intake
weekly average ethanol intake vs vehicle and 100 mg/kg (C57BL/6J mice; Test 5, 400 mg/kg IP in 0.25% CMC, 30 min before drinking, CIE and CTL mice together): significantly lower ethanol intake
weekly average ethanol intake vs vehicle (C57BL/6J mice; Test 5, 200 mg/kg IP): significantly reduced ethanol intake
weekly average ethanol intake vs vehicle (C57BL/6J mice; Test 5, 400 mg/kg IP): significantly reduced ethanol intake
weekly average ethanol intake vs vehicle, pair-wise comparison (C57BL/6J mice; Test 6, 400 mg/kg IP, p=0.07): trend for lower ethanol intake
ethanol intake vs vehicle (C57BL/6J mice; Test 7, 600 mg/kg IP, CIE and CTL groups, 600 mg/kg): significantly reduce ethanol intake
ethanol intake as percent change from vehicle group (C57BL/6J mice; CIE mice, 600 mg/kg (only the highest dose)): significant decrease in ethanol intake
ethanol intake as percent change from vehicle group (C57BL/6J mice; CTL mice, 200, 400 and 600 mg/kg): significant reduction in voluntary ethanol intake
inhibitory activity of ALDH2 (ALDH2): devoid of inhibitory activity
